What was measured:
[1] = target: PI-3 kinase γ (Homo sapiens, UniProt P48736); assay: PI3Kγ inhibitory activity, PI3-kinase HTRF assay (Millipore); type: biochemical; conditions: 0.5 h; compound 50 μM; read-out: Inhibition ratio % (50 μM)
Experimental: (Method) The PI3Kγ inhibitory activity of a compound was evaluated using PI3-kinase HTRF™ assay (Millipore) according to the following procedure.
To each well of a testing plate was added 5 μL of a compound solution comprising 10% DMSO (200 μM as the concentration of the compound), 5 μL of 40 μM phosphatidylinositol (4,5)-bisphosphate/20 mM MgCl2/10 mM DTT, and 5 μL of 80 μg/mL PI-3 kinase γ/10 mM MgCl2/5 mM DTT, and then stood for 10 minutes.
Then, 5 μL of 40 μM ATP/10 mM MgCl2/5 mM DTT was added thereto. After reacting for 30 minutes at room temperature, 5 μL of a solution comprising EDTA and biotinylated phosphatidylinositol (3,4,5)-triphosphate was added to quench the reaction.
5 μL of a detection reagent comprising a europium-labeled anti-GST antibody, the GST-tagged PH domain, and allophycocyanin-labeled streptavidin was added thereto. After 18 hours, HTRF (excitation wavelength: 330 nm, measuring wavelengths: 620 nm and 665 nm) was measured.
A value of dividing an amount of fluorescence obtained at the measuring wavelength 665 nm by an amount of fluorescence obtained at 620 nm was defined as an HTRF ratio. The HTRF ratio in the absence of a compound was defined as 100% activity, and the HTRF ratio in the absence of PI-3 kinase γ was defined as 0% activity to calculate an inhibition ratio.

[2] = Solubility test; type: physicochemical; conditions: 25 °C, fassgf or other biorelevant, kinetic from dmso stock, artificial intestinal juice pH 6.8, 1% DMSO, 25 degrees Celsius
Experimental: 10 mM compound solution was prepared using DMSO, and then 6 μL of the compound solution was added to 594 μL of artificial intestinal juice in pH 6.8 (to 250 mL of 0.2 mol/L potassium dihydrogen phosphate reagent solution was added 118 mL of 0.2 mol/L NaOH reagent solution and water to provide a final volume of 1000 mL). After standing at 25 degrees Celsius for 16 hours, the mixed solution was filtrated with suction. The filtrate was diluted twice with methanol/water (1/1), and then a concentration in the filtration was measured with HPLC or LC/MS/MS by the absolute calibration method.

[3] = Metabolic stability test, pooled human liver microsome; type: in vitro ADME; conditions: human liver microsome 0.5 mg protein/mL, NADPH, 37 degrees Celsius, 30 minutes
Experimental: After a subject compound was reacted for a certain time using a pooled human liver microsome commercially available, a reacted sample and an unreacted sample are compared to calculate a survival ratio, and then the degree of metabolism in the liver was evaluated.
0.2 mL of a buffer solution (50 mmol/L of Tris-HCl in pH 7.4, 150 mmol/L of potassium chloride, and 10 mmol/L of magnesium chloride) containing a human liver microsome of 0.5 mg protein/mL was reacted in the presence of 1 mmol/L NADPH at 37 degrees Celsius for 0 or 30 minutes (oxidative reaction). After reacting, 50 μL of the reaction solution was added to 100 μL of a solution of methanol/acetonitrile (1/1(v/v)), mixed, and then centrifuged at 3000 rpm for 15 minutes. A test compound in the supernatant was quantitated with LC/MS/MS. An amount of the compound remained at a reaction time of 0 minute was defined as 100%, and, based on that, an amount of the test compound remained after the reaction was calculated.

[4] = tested on: AKT phosphorylation (Ser473) in THP-1 cells; assay: AKT phosphorylation inhibitory activity in MCP-1 stimulated THP-1 cells (ELISA); type: cell-based, human; conditions: MCP-1 stimulation, compound concentration not given
Experimental: (1) The AKT phosphorylation inhibitory activity of a compound was evaluated according to the following procedure. (2) Human monocyte-like cell line THP-1 was washed with RPMI-1640 media, incubated in the presence of 5% CO2 at 37 degrees Celsius for 3 hours, washed with Hank's balanced salt solution (HBSS), adjusted to a cell concentration of 6.6×10^6/mL, and then used in an experiment. (3) 30 μL of the cell suspension and 60 μL of each compound solution comprising 0.2% DMSO/HBSS are mixed, and then preincubated at 37 degrees Celsius for 5 minutes. 30 μL of HBSS comprising 4 μg/mL of MCP-1 was added thereto, and then incubated for 30 seconds at 37 degrees Celsius. (4) 30 μL of 20 mM Tris-HCl (pH 7.5)/150 mM NaCl/1 mM Na2EDTA/1 mM EGTA/1% Triton/2.5 mM sodium pyrophosphate/1 mM β-glycerophosphate/1 mM Na3VO4/1 μg/ml leupeptin/50 nM APMSF was added thereto to dissolve cells. (5) The amount of AKT phosphorylation in a cell solution was measured by ELISA method. (6) To a micro well plate to which anti-phospho-Akt (Ser473) antibody (clone 193H12, derived from a rabbit) was solid-phased was added 100 μL of a prepared cell solution, incubated for 2 hours at 37 degrees Celsius, and then washed four times with Phosphate Buffered Saline/0.05% Tween-20. (7) An anti-AKT1 antibody (clone 2H10, derived from a mouse) was added thereto, incubated for 1 hour at 37 degrees Celsius, washed similarly, and then reacted with an HRP-labeled anti-mouse IgG antibody. (8) After incubating at 37 degrees Celsius for 30 minutes and then washing similarly, 100 μL of TMB (3,3′,5,5″-tetramethylbenzidine) was added thereto, followed by reacting at room temperature for 30 minutes. (9) 100 μL of 1 mol/L sulfuric acid was added to quench the color reaction, and then the absorbance at 450 nm was measured. (10) A series of diluted cell solutions of a positive control (a sample in the absence of a compound) were used as a calibration curve, the amount of AKT phosphorylation in a sample in the absence of MCP-1 was defined as 0% activity to calculate an inhibition ratio.

[5] = target: T1, human ether-a-go-go related gene (hERG) channel (Homo sapiens, UniProt Q12809); assay: hERG test, whole-cell patch-clamp in HEK293 cells; type: cell-based; conditions: HEK293 cells expressing hERG; concentration not given
T1 construct: expressed in transfected cells; host or cells: HEK293
Excerpt: For the purpose of a risk evaluation of QT interval extension of electrocardiogram, using the HEK293 cell that was made express human ether-a-go-go related gene (hERG) channel, the activity on delayed rectification K^+ current (IKr) playing an important role in a cardiac ventricle repolarization process was examined.
Using an automatic patch-clamp system (PatchXpress 7000A, Axon Instruments Inc.), by a whole-cell patch-clamp method, after the cell was maintained at a membrane potential of −80 mV, IKr induced on giving depolarizing stimulation of +50 mV for 2 seconds and further repolarizing stimulation of −50 mV for 2 seconds was recorded. After generated current became stable, extracellular fluid (NaCl: 137 mmol/L, KCl: 4 mmol/L, CaCl2.2H2O: 1.8 mmol/L, MgCl2.6H2O: 1 mmol/L, glucose: 10 mmol/L, HEPES (4-(2-hydroxyethyl)-1-piperazineethanesulfonic acid): 10 mmol/L, pH=7.4) dissolving a test substance at an intended concentration was applied to the cell for 10 minutes under room temperature condition. From the IKr obtained, using an analysis soft (DataXpress ver. 1, Molecular Devices Corporation), a current value in a membrane potential maintained was used as a standard, and the absolute value of the maximum tail current was measured. Moreover, an inhibition ratio for the maximum tail current prior to the application of the test substance was calculated, and then compared with a group of media-application (0.1% dimethylsulfoxide solution) to evaluate influence of the test substance on IKr.

Chain of PI-3 kinase γ (P48736 whole entry): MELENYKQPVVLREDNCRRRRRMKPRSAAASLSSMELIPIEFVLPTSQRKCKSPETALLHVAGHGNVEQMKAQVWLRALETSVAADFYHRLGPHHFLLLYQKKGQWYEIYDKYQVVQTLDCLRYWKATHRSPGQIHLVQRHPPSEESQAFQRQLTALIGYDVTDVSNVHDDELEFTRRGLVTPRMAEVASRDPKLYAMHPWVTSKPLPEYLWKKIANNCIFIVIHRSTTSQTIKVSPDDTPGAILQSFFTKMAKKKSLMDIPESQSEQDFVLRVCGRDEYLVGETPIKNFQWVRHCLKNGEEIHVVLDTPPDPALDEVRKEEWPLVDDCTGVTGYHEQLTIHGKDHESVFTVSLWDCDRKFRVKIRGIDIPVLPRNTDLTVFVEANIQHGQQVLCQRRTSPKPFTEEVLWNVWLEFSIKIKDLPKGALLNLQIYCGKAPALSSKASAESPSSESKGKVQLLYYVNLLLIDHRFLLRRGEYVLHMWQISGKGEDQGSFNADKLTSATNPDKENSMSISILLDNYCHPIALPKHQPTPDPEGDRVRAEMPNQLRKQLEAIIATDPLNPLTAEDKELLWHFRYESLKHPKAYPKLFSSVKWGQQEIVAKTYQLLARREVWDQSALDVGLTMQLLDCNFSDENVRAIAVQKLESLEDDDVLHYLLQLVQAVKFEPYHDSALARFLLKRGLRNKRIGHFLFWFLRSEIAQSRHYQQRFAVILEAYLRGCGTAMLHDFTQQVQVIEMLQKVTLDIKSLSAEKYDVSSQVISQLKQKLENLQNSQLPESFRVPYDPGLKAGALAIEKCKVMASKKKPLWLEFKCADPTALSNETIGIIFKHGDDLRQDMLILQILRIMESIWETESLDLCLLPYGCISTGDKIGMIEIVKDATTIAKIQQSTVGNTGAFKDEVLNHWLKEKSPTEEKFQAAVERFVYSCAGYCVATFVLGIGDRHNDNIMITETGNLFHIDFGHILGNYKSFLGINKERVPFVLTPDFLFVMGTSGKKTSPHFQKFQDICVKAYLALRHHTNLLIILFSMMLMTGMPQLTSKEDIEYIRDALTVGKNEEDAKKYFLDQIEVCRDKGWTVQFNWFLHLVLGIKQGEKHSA
T1 sequence (Q12809 whole entry): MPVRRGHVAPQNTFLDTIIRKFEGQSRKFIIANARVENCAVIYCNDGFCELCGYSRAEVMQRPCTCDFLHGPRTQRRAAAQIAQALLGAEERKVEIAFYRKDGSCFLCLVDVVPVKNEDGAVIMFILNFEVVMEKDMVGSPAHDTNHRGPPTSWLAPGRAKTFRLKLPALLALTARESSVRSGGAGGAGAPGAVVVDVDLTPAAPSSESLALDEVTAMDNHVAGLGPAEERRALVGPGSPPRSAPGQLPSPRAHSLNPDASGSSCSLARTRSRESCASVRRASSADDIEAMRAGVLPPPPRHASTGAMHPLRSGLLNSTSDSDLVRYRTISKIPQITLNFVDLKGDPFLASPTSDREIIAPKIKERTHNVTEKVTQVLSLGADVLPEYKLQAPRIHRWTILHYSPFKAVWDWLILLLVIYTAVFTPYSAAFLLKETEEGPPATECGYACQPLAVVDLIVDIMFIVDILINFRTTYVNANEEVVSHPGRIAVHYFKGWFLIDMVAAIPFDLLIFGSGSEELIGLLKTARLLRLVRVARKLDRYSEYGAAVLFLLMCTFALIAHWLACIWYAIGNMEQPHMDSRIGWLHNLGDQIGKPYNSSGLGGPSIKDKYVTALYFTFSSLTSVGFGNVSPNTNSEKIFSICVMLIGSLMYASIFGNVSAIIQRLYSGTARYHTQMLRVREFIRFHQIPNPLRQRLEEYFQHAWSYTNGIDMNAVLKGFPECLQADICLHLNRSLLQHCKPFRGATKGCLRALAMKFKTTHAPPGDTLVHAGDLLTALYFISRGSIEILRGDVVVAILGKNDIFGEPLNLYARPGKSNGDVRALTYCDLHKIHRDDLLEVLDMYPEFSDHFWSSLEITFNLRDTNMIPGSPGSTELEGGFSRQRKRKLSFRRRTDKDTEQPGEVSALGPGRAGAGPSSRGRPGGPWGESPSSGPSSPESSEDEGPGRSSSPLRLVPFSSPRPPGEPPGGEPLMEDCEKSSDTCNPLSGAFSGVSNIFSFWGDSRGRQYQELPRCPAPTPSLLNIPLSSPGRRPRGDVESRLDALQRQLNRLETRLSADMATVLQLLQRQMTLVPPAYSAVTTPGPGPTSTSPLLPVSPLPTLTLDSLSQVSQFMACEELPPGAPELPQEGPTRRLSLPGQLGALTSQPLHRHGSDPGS

| inhibition at 50 µM [1] [%] | Structure (SMILES) | other results |
| --- | --- | --- |
| 89 | CNC(=O)Nc1cn2nc(-c3cccc(C(=O)O)c3)ccc2n1 [Compound I-28] | solubility at 16 h [2]: > 50 µM; Amount of the test compound remained after the reaction [3]: 98.6% |
| 84 | CNC(=O)Nc1cn2nc(-c3cccc(C(N)=O)c3)ccc2n1 [Compound I-29] | Amount of the test compound remained after the reaction [3]: 98.8% |
| 86 | CNC(=O)Nc1cn2nc(-c3cccnc3)ccc2n1 [Compound I-37] | AKT phosphorylation inhibition ratio [4]: 86.7%; solubility at 16 h [2]: > 50 µM; Amount of the test compound remained after the reaction [3]: 96.8% |
| 84 | CNC(=O)Nc1cn2nc(-c3cccc(S(C)(=O)=O)c3)ccc2n1 [Compound I-75] | solubility at 16 h [2]: > 50 µM |
| 64 | COc1cccc(-c2ccc3nc(NC(=O)Nc4ccccc4)cn3n2)c1 [Compound I-118] | Amount of the test compound remained after the reaction [3]: 95.9% |
| 96 | CCNC(=O)Nc1cn2nc(-c3cccc(OC)c3)ccc2n1 [Compound I-119] | AKT phosphorylation inhibition ratio [4]: 92.9% |
| 79 | CNC(=O)Nc1cn2nc(-c3cccc(CCCO)c3)ccc2n1 [Compound I-136] | solubility at 16 h [2]: > 50 µM |
| 81 | CNC(=O)Nc1cn2nc(-c3cccc(C(=O)N4CCCC4)c3)ccc2n1 [Compound I-137] | Inhibition ratio for the maximum tail current (IKr) [5]: 8.4% |
| 102 | CNC(=O)Nc1cn2nc(-c3cccc(N(C)C)c3)ccc2n1 [Compound I-143] | Inhibition ratio for the maximum tail current (IKr) [5]: 7.8% |
| 58 | COc1cccc(-c2ccc3nc(NC(=O)c4ccccc4Cl)cn3n2)c1 [Compound I-163] | Amount of the test compound remained after the reaction [3]: 98.1% |
| 98 | CCC(C)C(=O)Nc1cn2nc(-c3cccc(OC)c3)ccc2n1 (stereo not drawn) [Compound I-182] | Inhibition ratio for the maximum tail current (IKr) [5]: 9.3% |
| – | CCOC(=O)c1nc[nH]c1C(=O)Nc1cn2nc(-c3cccc(OC)c3)ccc2n1 [Compound I-208] | Inhibition ratio for the maximum tail current (IKr) [5]: 0.5% |
| 85 | COc1cccc(-c2ccc3nc(NC(=O)CCCn4cncn4)cn3n2)c1 [Compound I-210] | Amount of the test compound remained after the reaction [3]: 97% |
| 71 | COc1cccc(-c2ccc3nc(NC(=O)NCC(=O)OC(C)(C)C)cn3n2)c1 [Compound I-248] | Inhibition ratio for the maximum tail current (IKr) [5]: 6.7% |
| – | COc1cccc(-c2ccc3nc(NC(=O)NCCCS(=O)(=O)c4ccccc4)cn3n2)c1 [Compound I-266] | AKT phosphorylation inhibition ratio [4]: 90.1% |
| 82 | COc1cccc(-c2ccc3nc(NC(=O)NCCO)cn3n2)c1 [Compound I-270] | solubility at 16 h [2]: > 50 µM |
| 88 | COc1cccc(-c2ccc3nc(NC(=O)NO)cn3n2)c1 [Compound I-274] | AKT phosphorylation inhibition ratio [4]: 82.6% |
| 92 | CNC(=O)Nc1cn2nc(C(=O)c3ccccc3)ccc2n1 [Compound I-280] | Inhibition ratio for the maximum tail current (IKr) [5]: 5.8% |
| 78 | CNC(=O)Nc1cn2nc(Sc3cccc(OC)c3)ccc2n1 [Compound I-281] | – |
| 78 | CNC(=O)Nc1cn2nc(Cc3cccc(OC)c3)ccc2n1 [Compound I-282] | – |
| 86 | COc1cccc(-c2ccc3nc(Nc4cccc(C(C)=O)c4)cn3n2)c1 [Compound I-283] | – |
| 111 | COc1cccc(-c2ccc3nc(Nc4cccc(CO)c4)cn3n2)c1 [Compound I-284] | – |
| 96 | COC(=O)c1cccc(Nc2cn3nc(-c4cccc(OC)c4)ccc3n2)c1 [Compound I-285] | – |
| 87 | COc1cccc(-c2ccc3nc(Nc4cccc([N+](=O)[O-])c4)cn3n2)c1 [Compound I-286] | – |
| 101 | COc1ccc(Nc2cn3nc(-c4cccc(OC)c4)ccc3n2)cc1 [Compound I-287] | – |
| 107 | COc1cccc(-c2ccc3nc(Nc4ccc(OCCO)cc4)cn3n2)c1 [Compound I-288] | – |
| 127 | COc1cccc(-c2ccc3nc(Nc4ccc(CO)cn4)cn3n2)c1 [Compound I-289] | – |
| 92 | COc1cccc(-c2ccc3nc(Nc4cccc(O)n4)cn3n2)c1 [Compound I-290] | – |
| 74 | COc1cccc(-c2ccc3nc(NC(C)=O)cn3n2)c1 [Compound I-291] | – |

From US20110105457A1, “HETEROCYCLIC COMPOUND HAVING INHIBITORY ACTIVITY ON PI3K” (SHIONOGI & CO., LTD., priority 2008, published 2011)
